Assay results reported in publication PMC11879280, “Antimicrobial activity of peptoids against Metallo-β-lactamase-producing Klebsiella pneumoniae, Acinetobacter baumannii, Pseudomonas aeruginosa, and other WHO priority pathogens, including Candida auris” (Journal of Applied Microbiology, 2025).
Converted amounts (≈) assume the structure as drawn. Read-outs that look alike come from different tables or passages of the source. Square brackets hold non-standard residues; d marks the D form. Peptide text beside a SMILES is read from it. Nspe = C[C@H](NCC(=O)O)c1ccccc1; NDecylGly = CCCCCCCCCCNCC(=O)O; Nlys = NCCCCNCC(=O)O

Legend:
K. pneumoniae JIE2709 = experiment: Checkerboard microdilution synergy test; assay type: cell-based, Klebsiella pneumoniae
Description: (§1) Then, 10 µl of bacteria (5 × 10^6 CFU ml^−1) or C. auris (2.5 × 10^4 CFU ml^−1) were added to each well, except for the sterility control well. […] The sterility control wells contained only MHB (or RPMI in case of C. auris), and the growth control contained 110 µl of microbial inoculum with no antimicrobials. Subsequently, the plates were incubated for 18- 24 hours at 36 ± 1 °C.
(§2) The FIC for each combination interaction was calculated as follows:
(§3) Then, the summation of FIC (ƩFIC) was calculated for each antimicrobial combination as follows: ƩFIC = FICA + FICB. […] All antimicrobial synergy experiments were repeated in at least two independent runs.

K. pneumoniae JIE2713 = experiment: Checkerboard microdilution synergy test; assay type: cell-based, Klebsiella pneumoniae
Description: as §1, §2, §3

C. auris CBS10913 = experiment: Checkerboard microdilution synergy test; assay type: cell-based, Candida auris
Description: (§4) The checkerboard microdilution test was performed to determine the fractional inhibitory concentration (FIC) of selected antimicrobials and assess whether the combination had synergistic, antagonistic, or indifferent effects (Anon [2016]) against strains of K. pneumoniae or C. auris. […] Additionally, a strain susceptible to ciprofloxacin was tested to observe the outcome of its combination with TM8 as a representative case from susceptible isolates. […] Then, 10 µl of bacteria (5 × 10^6 CFU ml^−1) or C. auris (2.5 × 10^4 CFU ml^−1) were added to each well, except for the sterility control well. […] The sterility control wells contained only MHB (or RPMI in case of C. auris), and the growth control contained 110 µl of microbial inoculum with no antimicrobials. Subsequently, the plates were incubated for 18- 24 hours at 36 ± 1 °C.
as §2
(§5) Then, the summation of FIC (ƩFIC) was calculated for each antimicrobial combination as follows: ƩFIC = FICA + FICB. The results were interpretated as follows: Synergy if ƩFIC ≤ 0.5; Additive if 0.5<ƩFIC ≤ 1; Indifference if […] ≤ 4; and Antagonism if ƩFIC > 4 (Odds [2003]). All antimicrobial synergy experiments were repeated in at least two independent runs.

C. auris CBS12373 = experiment: Checkerboard microdilution synergy test; assay type: cell-based, Candida auris
Description: as §4, §2, §5

C. auris CBS 10913 [1] = experiment: Time-kill kinetics; assay type: cell-based, Candida auris; conditions: RPMI, 35°C, three independent runs
Description: Killing kinetics (time-kill) were evaluated as described previously (Lum et al. [2015]). […] At set intervals (0, 0.5, 1, 1.5, 2, 2.5, 3, 4, 5, 6, 12, and 24 h), 100 µl samples were serially diluted in PBS and plated on Sabouraud dextrose agar (SDA; Oxoid, UK) with 0.5% polysorbate 80 (Chem-supply, SA, Australia). CFUs were enumerated, with a yeast growth control processed similarly. Results were presented from three independent runs.

[2] = system: C. auris CBS12373 biofilm; assay type: cell-based, Candida auris; conditions: for Mature biofilm inhibition, blank corrected 570 nm, av. of readings: MTT absorbance
Description: To assess disruption of mature biofilms, 2 × 10^5 cells were cultured for 2 h in 96-well flat bottom microtiter plates at 37°C, washed, then incubated for 48 h in fresh media to form mature biofilm. […] For each activity test, the metabolic activities of the yeast cells in biofilms were measured by MTT reduction assay after washing the disrupted biofilm with PBS (Srivastava and Ahmad [2020]).

C. auris CBS 10913 [3] = experiment: Sorbitol protection assay; assay type: cell-based, Candida auris; conditions: CBS10913
From the text: Caspofungin served as a positive control for the assay (Leite et al. [2014]).

CCCCCCCCCCNCC(=O)N(CCCCN)CC(=O)N(CC(=O)N(CC(=O)N(CCCCN)CC(=O)N(CC(=O)N(CC(N)=O)[C@@H](C)c1ccccc1)[C@@H](C)c1ccccc1)[C@@H](C)c1ccccc1)[C@@H](C)c1ccccc1 [TM8] (H-[NDecylGly][Nlys][Nspe][Nspe][Nlys][Nspe][Nspe]-NH2)
MIC of TM8 (alone, checkerboard) (K. pneumoniae JIE2709): 15.625 µg/mL | FICTM8 (K. pneumoniae JIE2709; TM8 with Cefotaxime): 0.5 | MF of TM8 (modulation factor) (K. pneumoniae JIE2709; TM8 with Cefotaxime): 2 | Outcome (K. pneumoniae JIE2709; TM8 with Cefotaxime): Additive (Additive if 0.5<ƩFIC ≤ 1) | ƩFIC (K. pneumoniae JIE2709; TM8 with Cefotaxime): 1 | FICTM8 (K. pneumoniae JIE2709; TM8 with Ciprofloxacin): 0.5 | MF of TM8 (modulation factor) (K. pneumoniae JIE2709; TM8 with Ciprofloxacin): 2 | Outcome (K. pneumoniae JIE2709; TM8 with Ciprofloxacin): Additive (Additive if 0.5<ƩFIC ≤ 1) | ƩFIC (K. pneumoniae JIE2709; TM8 with Ciprofloxacin): 1 | FICTM8 (K. pneumoniae JIE2709; TM8 with Meropenem): 0.5 | MF of TM8 (modulation factor) (K. pneumoniae JIE2709; TM8 with Meropenem): 2 | ƩFIC (K. pneumoniae JIE2709; TM8 with Meropenem): 0.625 | MIC of TM8 (alone, checkerboard) (K. pneumoniae JIE2713): 15.625 µg/mL | FICTM8 (K. pneumoniae JIE2713; TM8 with Aztreonam): 0.5 | MF of TM8 (modulation factor) (K. pneumoniae JIE2713; TM8 with Aztreonam): 2 | MIC of TM8 + DrugB (K. pneumoniae JIE2713; TM8 with Aztreonam): 7.8125 µg/mL | ƩFIC (K. pneumoniae JIE2713; TM8 with Aztreonam): 1 | FICTM8 (K. pneumoniae JIE2713; TM8 with Cefotaxime): 0.5 | MF of TM8 (modulation factor) (K. pneumoniae JIE2713; TM8 with Cefotaxime): 2 | ƩFIC (K. pneumoniae JIE2713; TM8 with Cefotaxime): 1 | FICTM8 (K. pneumoniae JIE2713; TM8 with Ciprofloxacin): 0.25 | MF of TM8 (modulation factor) (K. pneumoniae JIE2713; TM8 with Ciprofloxacin): 4 | ƩFIC (K. pneumoniae JIE2713; TM8 with Ciprofloxacin): 0.273 | FICTM8 (K. pneumoniae JIE2713; TM8 with Gentamicin): 0.5 | MF of TM8 (modulation factor) (K. pneumoniae JIE2713; TM8 with Gentamicin): 2 | ƩFIC (K. pneumoniae JIE2713; TM8 with Gentamicin): 1 | MIC of TM8 (alone, checkerboard) (C. auris CBS10913): 7.813 µg/mL | FICTM8 (C. auris CBS10913; TM8 with Fluconazole): 0.5 | MF of TM8 (modulation factor) (C. auris CBS10913; TM8 with Fluconazole): 2 | ƩFIC (C. auris CBS10913; TM8 with Fluconazole): 0.563 | MIC of TM8 (alone, checkerboard) (C. auris CBS12373): 3.9 µg/mL | FICTM8 (C. auris CBS12373; TM8 with Fluconazole): 0.5 | MF of TM8 (modulation factor) (C. auris CBS12373; TM8 with Fluconazole): 2 | ƩFIC (C. auris CBS12373; TM8 with Fluconazole): 0.563 | Time to 3-log reduction (C. auris CBS 10913 [1]; 1× MIC): ≤ 6 h | Time to complete killing of the yeast cells (C. auris CBS 10913 [1]; 1× MIC): ≤ 12 h | Time to fungicidal activity (C. auris CBS 10913 [1]; 4× MIC): ≤ 2 h | Biofilm tolerance factor-eradication (MBEC/MIC) ([2]; C. auris CBS12373, MTT): 4 | Mature biofilm MBEC ([2]; CBS12373 biofilm, 48 h): 62.5 µg/mL | Mature biofilm inhibition, blank corrected 570 nm, av. of readings ([2]; agent at 0.976562 (growth control 1.115)): 1.684 | Mature biofilm inhibition, blank corrected 570 nm, av. of readings ([2]; agent at 1.95312 (growth control 1.115)): 1.307 | Mature biofilm inhibition, blank corrected 570 nm, av. of readings ([2]; agent at 3.90625 (growth control 1.115)): 0.871 | Mature biofilm inhibition, blank corrected 570 nm, av. of readings ([2]; agent at 7.8125 (growth control 1.115)): 0.456 | Mature biofilm inhibition, blank corrected 570 nm, av. of readings ([2]; agent at 15.625 (growth control 1.115)): 0.49 | Mature biofilm inhibition, blank corrected 570 nm, av. of readings ([2]; agent at 31.25 (growth control 1.115)): 0.129 | Mature biofilm inhibition, blank corrected 570 nm, av. of readings ([2]; agent at 62.5 (growth control 1.115)): 0 | Mature biofilm inhibition, blank corrected 570 nm, av. of readings ([2]; agent at 125 (growth control 1.115)): -0.0001 | Mature biofilm inhibition, blank corrected 570 nm, av. of readings ([2]; agent at 250 (growth control 1.115)): 0.02 | Mature biofilm inhibition, blank corrected 570 nm, av. of readings ([2]; agent at 500 (growth control 1.115)): 0.02 | MIC in the presence of sorbitol (C. auris CBS 10913 [3]): 7.8 µg/mL | MIC without sorbitol (C. auris CBS 10913 [3]): 7.8 µg/mL (≈ 6.99 µM)
